Results reported in patent US20240059673A1, “SUBSTITUTED INDOLE COMPOUNDS” (Gilead Sciences, Inc., priority 2020, published 2024).
pEC50: −log10 of the molar value.

Tests used:
TLR7 = molecular target: T1, TLR7 (Homo sapiens, UniProt Q9NYK1); test: Human PBMC cell-based assay, TLR7 agonist stimulation; conditions: human PBMCs; TLR7 agonist GS-986 400 nM; 6 hours; cytokines (IL-6 and IFNα) in supernatant; Table 2; read-out: TLR-7 EC50
T1 construct: lymphocytes, monocytes and dendritic cells that express TLR7, TLR8 and TLR9; endogenous in cells; host or cells: cryopreserved human PBMCs from healthy donors
T1 sequence (Q9NYK1 27-1049): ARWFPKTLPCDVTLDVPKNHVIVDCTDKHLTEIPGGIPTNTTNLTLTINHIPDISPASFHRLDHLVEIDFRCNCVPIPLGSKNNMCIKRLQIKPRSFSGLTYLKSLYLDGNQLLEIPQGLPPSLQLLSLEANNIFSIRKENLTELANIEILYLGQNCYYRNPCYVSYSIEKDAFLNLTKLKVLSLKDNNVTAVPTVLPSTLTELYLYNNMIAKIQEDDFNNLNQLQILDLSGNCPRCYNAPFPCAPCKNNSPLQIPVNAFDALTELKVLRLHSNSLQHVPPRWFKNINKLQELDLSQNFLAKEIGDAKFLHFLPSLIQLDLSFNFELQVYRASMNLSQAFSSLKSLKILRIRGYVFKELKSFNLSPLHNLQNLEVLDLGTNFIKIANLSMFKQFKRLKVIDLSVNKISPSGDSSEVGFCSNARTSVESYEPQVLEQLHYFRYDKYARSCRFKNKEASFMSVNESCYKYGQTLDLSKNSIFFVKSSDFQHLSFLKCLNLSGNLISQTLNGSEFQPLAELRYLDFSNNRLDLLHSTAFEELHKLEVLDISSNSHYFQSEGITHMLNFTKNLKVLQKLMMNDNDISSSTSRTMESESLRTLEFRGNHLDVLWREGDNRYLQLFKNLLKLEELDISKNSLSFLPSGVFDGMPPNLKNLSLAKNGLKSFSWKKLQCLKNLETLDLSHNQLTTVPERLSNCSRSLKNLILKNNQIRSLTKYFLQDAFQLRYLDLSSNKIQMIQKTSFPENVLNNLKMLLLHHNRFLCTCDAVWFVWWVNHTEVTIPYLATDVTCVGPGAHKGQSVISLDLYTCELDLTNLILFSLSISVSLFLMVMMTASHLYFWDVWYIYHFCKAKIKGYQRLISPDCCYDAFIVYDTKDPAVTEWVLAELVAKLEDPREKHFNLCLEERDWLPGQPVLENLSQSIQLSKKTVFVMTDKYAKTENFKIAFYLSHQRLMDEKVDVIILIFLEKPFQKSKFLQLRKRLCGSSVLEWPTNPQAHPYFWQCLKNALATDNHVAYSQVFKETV
From the text: (§1) Human Peripheral Blood Mononuclear Cell (PBMC) Cell-Based Assay
(§2) Human peripheral blood mononuclear cells (PBMCs) consist of lymphocytes, monocytes and dendritic cells that express TLR7, TLR8 and TLR9. These cells respond to TLR7, TLR8 and TLR9 ligand stimulation and produce cytokines and chemokines in vitro and in vivo. Human PBMCs are therefore suitable to be used in a cell-based assay to assess the in vitro potency of a TLR 7, 8, and/or 9 antagonist. The result is expected to be more translatable to the pharmacodynamics response in vivo than cell line-based assays.
(§3) Cryopreserved human PBMCs from healthy donors were thawed and resuspended in RPMI-1640 media with L-glutamine (Corning) supplemented with 10% Fetal Bovine Serum (Hyclone) and 1× Penicillin-Streptomycin (Corning). After counting, the cell density was adjusted to 2 million cells/ml and incubated for 1 hour at 37° C., 5% CO2 for recovery. Following the recovery, the cells were plated by adding 50p per well (100,000 cells) to 384-well cell culture plates (Greiner) containing 250 nl of test antagonists in 100% DMSO per well, in a 10 points dose response in quadruplicates. PBMCs were incubated in the presence of test antagonists for one hour at 37° C., 5% CO2 before being stimulated with a TLR7 or TLR9 agonist. GS-986 (Gilead Sciences) was used as the TLR7 agonist at a final concentration of 400 nM. ODN-2216 (InvivoGen) was used as the TLR9 agonist at a final concentration of 3μM. PBMCs were incubated in the presence of the test antagonist and the TLR7 (or TLR9) agonist for an additional 6 hours at 37° C., 5% CO2. At the end of the incubation, the cell culture plates were centrifuged at 500 g for 5 min, and the cell culture supernatant was collected. The level of cytokines (IL-6 and IFNα) in the supernatant was measured by electrochemiluminescence immunoassays (Mesoscale Discovery) following manufacturer's recommended protocols. The level of cytokine measured was plotted against the test antagonist concentration and fitted to a sigmoidal function to determine the EC50, which are shown below in Table 2.

TLR9 = molecular target: T2, TLR9 (Homo sapiens, UniProt Q9NR96); test: Human PBMC cell-based assay, TLR9 agonist stimulation; conditions: human PBMCs; TLR9 agonist ODN-2216 3 μM; 6 hours; cytokines (IL-6 and IFNα) in supernatant; Table 2; read-out: TLR-9 EC50
T2 construct: lymphocytes, monocytes and dendritic cells that express TLR7, TLR8 and TLR9; endogenous in cells; host or cells: cryopreserved human PBMCs from healthy donors
T2 sequence (Q9NR96 26-1032): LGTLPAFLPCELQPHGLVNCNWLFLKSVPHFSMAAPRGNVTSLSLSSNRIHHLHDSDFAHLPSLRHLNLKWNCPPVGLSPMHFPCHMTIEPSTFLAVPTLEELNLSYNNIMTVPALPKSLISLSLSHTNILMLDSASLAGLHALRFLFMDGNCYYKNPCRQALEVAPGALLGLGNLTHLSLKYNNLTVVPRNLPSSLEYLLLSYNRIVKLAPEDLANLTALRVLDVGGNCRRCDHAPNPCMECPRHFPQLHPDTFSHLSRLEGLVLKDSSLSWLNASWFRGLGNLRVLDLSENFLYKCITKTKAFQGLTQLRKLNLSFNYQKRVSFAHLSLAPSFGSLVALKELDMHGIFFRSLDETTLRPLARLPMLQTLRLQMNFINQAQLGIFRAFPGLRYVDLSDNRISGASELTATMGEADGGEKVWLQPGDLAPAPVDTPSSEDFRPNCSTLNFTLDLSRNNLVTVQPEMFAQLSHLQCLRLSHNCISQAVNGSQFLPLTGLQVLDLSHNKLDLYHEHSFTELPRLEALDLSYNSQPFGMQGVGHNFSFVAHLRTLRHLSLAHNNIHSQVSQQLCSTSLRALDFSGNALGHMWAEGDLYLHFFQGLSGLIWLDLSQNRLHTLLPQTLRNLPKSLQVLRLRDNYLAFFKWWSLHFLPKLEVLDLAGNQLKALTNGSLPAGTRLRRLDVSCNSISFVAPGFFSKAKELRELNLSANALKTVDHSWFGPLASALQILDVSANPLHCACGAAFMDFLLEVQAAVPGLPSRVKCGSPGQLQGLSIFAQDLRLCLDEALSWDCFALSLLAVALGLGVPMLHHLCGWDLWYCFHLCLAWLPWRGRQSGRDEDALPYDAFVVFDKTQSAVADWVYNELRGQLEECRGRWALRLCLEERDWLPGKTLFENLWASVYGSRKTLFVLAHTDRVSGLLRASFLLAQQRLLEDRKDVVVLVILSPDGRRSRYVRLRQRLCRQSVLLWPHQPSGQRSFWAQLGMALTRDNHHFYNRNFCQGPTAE
From the text: as §1, §2, §3

Row | pEC50 (TLR7) | pEC50 (TLR9) | SMILES
1 | 6.84 | 6.43 | Cc1c(-c2ccc(N3CCNCC3)nc2)[nH]c2cc(-c3ccnc4ccccc34)ccc12 [Example 8]
2 | 7.23 | 6.29 | COc1ccc(-c2ccc3c(C)c(-c4ccc(N5CCNCC5)nc4)[nH]c3c2)cc1OC [Example 10]
3 | 7.18 | 7.21 | Cc1cc(-c2ccc3c(C)c(-c4cccc(C(=O)N5CCNCC5)c4)[nH]c3c2)cc(C)n1 [Example 22, (3-(6-(2,6-dimethylpyridin-4-yl)-3-methyl-1H-indol-2-yl)phenyl)(piperazin-1-yl)methanone]
4 | < 6.00 | 5.47 | Cc1cc(-c2ccc3c(C)c(C4CCN(C(=O)c5cncn5C)CC4)[nH]c3c2)cc(C)n1 [Example 27]
5 | 6.47 | 7.01 | Cc1cc(-c2ccc3c(C)c(-c4cccc(C(=O)N[C@H]5CCNC5)c4)[nH]c3c2)cc(C)n1 [Example 18]
6 | 8.21 | 7.43 | CCc1c(-c2cnc(N3CCNCC3)nc2)[nH]c2cc(-c3cc(C)nc(C)c3)ccc12 [Example 14]
7 | 6.48 | 6.37 | Cc1cc(-c2ccc3c(C)c(-c4ccc(C(=O)N[C@@H]5CCNC5)cc4)[nH]c3c2)cc(C)n1 [Example 19]
8 | 6.16 | 7.15 | Cc1cc(-c2ccc3c(C)c(C4=CCNCC4)[nH]c3c2)cc(C)n1 [Example 11, 6-(2,6-dimethylpyridin-4-yl)-3-methyl-2-(1,2,3,6-tetrahydropyridin-4-yl)-1H-indole]
9 | 6.54 | 6.61 | Cc1cc(-c2ccc3c(C)c(-c4ccc(C(=O)N[C@H]5CCNC5)cc4)[nH]c3c2)cc(C)n1 [Example 20]
10 | 6.33 | 6.33 | Cc1c(-c2ccc(N3CCNCC3)nc2)[nH]c2cc(-c3cn[nH]c3)ccc12 [Example 9]
11 | 6.29 | 6.69 | Cc1cc(-c2ccc3c(C)c(-c4ccc(S(=O)(=O)N5CCNCC5)cc4)[nH]c3c2)cc(C)n1 [Example 15]

Continued, compound first:

Row | SMILES | pEC50 (TLR7) | pEC50 (TLR9)
12 | Cc1cc(-c2cnc3c(C)c(-c4ccc(N5CCNCC5)nc4)[nH]c3c2)cc(C)n1 [Example 29] | 7.83 | 7.11
13 | Cc1cc(-c2ccc3c(C)c(-c4ccc(N5CCN(CCO)CC5)nc4)[nH]c3c2)cc(C)n1 [Example 30, 2-(4-(5-(6-(2,6-dimethylpyridin-4-yl)-3-methyl-1H-indol-2-yl)pyridin-2-yl)piperazin-1-yl)ethan-1-ol] | 7.99 | 7.42
14 | Cc1cc(-c2ccc3c(C)c(-c4cccc(C(=O)N[C@@H]5CCNC5)c4)[nH]c3c2)cc(C)n1 [Example 17, (R)-3-(6-(2,6-dimethylpyridin-4-yl)-3-methyl-1H-indol-2-yl)-N-(pyrrolidin-3-yl)benzamide] | 6.71 | 6.38
15 | Cc1cc(-c2ccc3c(C)c(-c4cnc5c(c4)CNCC5)[nH]c3c2)cc(C)n1 [Example 16, 3-[6-(2,6-dimethyl-4-pyridyl)-3-methyl-1H-indol-2-yl]-5,6,7,8-tetrahydro-1,6-naphthyridine] | 7.17 | 7.55
16 | Cc1cc(-c2cnc3c(C)c(-c4ccc(N5CCNCC5)cc4)[nH]c3c2)cc(C)n1 [Example 28, 6-(2,6-dimethylpyridin-4-yl)-3-methyl-2-(4-(piperazin-1-yl)phenyl)-1H-pyrrolo[3,2-b]pyridine] | 7.55 | 6.87
17 | CCN1CCC(c2[nH]c3cc(-c4cc(C)nc(C)c4)ccc3c2C)CC1 [Example 13, 6-(2,6-dimethylpyridin-4-yl)-2-(1-ethylpiperidin-4-yl)-3-methyl-1H-indole] | < 6.00 | 6.76
18 | Cc1noc(C)c1-c1ccc2c(C)c(-c3ccc(N4CCNCC4)nc3)[nH]c2c1 [Example 6] | 6.35 | 5.68
19 | Cc1cc(-c2ccc3c(C)c(C4CCN(C(=O)CC5CCNCC5)CC4)[nH]c3c2)cc(C)n1 [Example 26] | < 6.00 | 5.88
20 | Cc1cc(-c2ccc3c(C)c(-c4ccc(N5CCNCC5)nc4)[nH]c3c2)ccn1 [Example 5] | 8.36 | 7.16
21 | Cc1cc(-c2ccc3c(C)c(C4CCN(C(=O)CN(C)C)CC4)[nH]c3c2)cc(C)n1 [Example 24, 2-(dimethylamino)-1-(4-(6-(2,6-dimethylpyridin-4-yl)-3-methyl-1H-indol-2-yl)piperidin-1-yl)ethan-1-one] | < 6.00 | 6.88
22 | Cc1cc(-c2ccc3c(C)c(-c4ccc(C(=O)N5CCNCC5)cc4)[nH]c3c2)cc(C)n1 [Example 21] | 6.90 | 7.08
23 | CCc1c(-c2ccc(N3CCNCC3)nc2)[nH]c2cc(-c3cc(C)nc(C)c3)ccc12 [Example 12] | 8.21 | 7.32
24 | Cc1c(-c2cnc(N3CCNCC3)nc2)[nH]c2cc(-c3cc(C)c4ncnn4c3)ccc12 [Example 3] | 8.57 | 6.77
25 | Cc1cc(-c2ccc3c(C)c(C4CCN(C(=O)c5cccnc5)CC4)[nH]c3c2)cc(C)n1 [Example 25] | < 6.00 | 5.55
